Measurements: PubChem BioAssay AID2060615 (Molecular Pharmacology Branch, DTP, NCI, 2025)

System: 496974-208-R-J2-PDC complex spheroids, growth % test/control
Experiment: Anticancer human tumor 496974-208-R-J2-PDC patient-derived pancreatic carcinoma cell line growth inhibition [CLK]
Conditions: for IC50: curve of first compound; for viability, T/C: stronger effect = lower value
Source text: A high-throughput screen of multi-cell type tumor spheroids was designed to identify active combinations of […] and targeted small molecules. Complex spheroids include a stromal component modeled by human endothelial cells (HUVEC) and fibroblasts modeled by human mesenchymal stem cells (MSCs). The concentration ranges selected for each drug and investigational agent were based upon clinically achievable concentrations if the clinical Cmax of the agent was known.
Compounds. The drugs and investigational agents: cirtuvivint (SM08502; NSC835563), CC-671 (NSC850746), vemurafenib (NSC761431), tapotoclax (NSC804041), sotorasib (NSC818433), adagrasib (NSC831453), MRTX-1133 (NSC836407), BAY2416964 (NSC825713), copanlisib (NSC816437), inavolisib (NSC800729), abemaciclib (NSC768073), osimertinib (NSC779217), entinostat (NSC756642), eltanexor (KPT-8602, NSC794443), venetoclax (NSC766270), ceralasertib (NSC777638), bortezomib (NSC756655), olaparib (NSC753686), talazoparib (NSC767125), alisertib (NSC759677), peposertib (NSC802822), gemcitabine (NSC613327), 5-fluorouracil (NSC19893), SN-38 (NSC673596), oxaliplatin (NSC266046), paclitaxel (NSC125973), and doxorubicin (NSC123127), were obtained from the National Cancer Institute (NCI) Developmental Therapeutics Program Chemical Repository. The FDA-approved anticancer drug set is available from the Developmental Therapeutics Program at https://dtp.cancer.gov/organization/dscb/obtaining/available plates.htm. […] The stock solutions were prepared in dimethyl sulfoxide (DMSO, Sigma-Aldrich, St. Louis, MO, cat. D2650), except for the platinum complexes which were prepared in saline (Quality Biological, Gaithersburg, MD, cat. 114-055-101), at 800-fold the tested concentration and stored at -70 degrees C prior to their use. All drugs and investigational agents were tested over a range starting from a high concentration at or near the clinical Cmax and decreasing in half-log increments. If the clinical Cmax for an agent had not been determined, the highest concentration tested was 10 microM.
Cell Culture. All cells were maintained in an incubator at 37 degrees C and 5% CO2 with 95% humidity. The PDC lines were cultured according to standard operating procedures established by the NCI PDMR. Briefly, all PDCs were thawed and cultured in Matrigel-coated flasks prepared with a working solution of 1X Ham's F-12 nutrient mix, without supplementation (Invitrogen, Waltham, MA, cat. 11765054), 100 U/mL penicillin-streptomycin (Invitrogen, cat. 15140122), and 2.5% Matrigel (Corning Inc., Corning, NY, cat. 354248) for the first three passages. The 947758-054-R-J2-PDC line was cultured in 6B/Colon 1A media, which includes advanced DMEM/F-12 (Thermo Fisher Scientific, cat. 12634028), 10 mM HEPES (Thermo Fisher Scientific, cat. 15630080), 1X GlutaMAX supplement (Thermo Fisher Scientific, cat. 35050061), 0.1 mg/mL primocin (InvivoGen, cat. ant-pm-2), 10% defined fetal bovine serum, heat inactivated (HyClone Laboratories Inc., cat. SH30070.03HI), 1.25 mM N-Acetyl-L-cysteine (Sigma-Aldrich, cat. A9165), 10 mM nicotinamide (Sigma-Aldrich, cat. N0636), 1X B-27 supplement (Thermo Fisher Scientific, cat. 17504044), 1X N-2 supplement (Thermo Fisher Scientific, cat. 17502048), and 10 microM Y-27632 dihydrochloride (Tocris Bioscience, cat. 1254). The 876862-298-R-J1-PDC was cultured in 6E media, which includes all 6B/Colon 1A media components plus 50% L-WRN conditioned media (ATCC, cat. CRL-3276), 50 ng/mL recombinant human EGF recombinant protein (hEGF; Thermo Fisher Scientific, cat. PHG0311), 10 ng/mL recombinant human fibroblast growth factor 10 (hGFG-10; PeproTech, cat. 100-26), 1 ng/mL recombinant human fibroblast growth factor 2 (hFGF-2; PeproTech, cat. 100-18B), and 1 µM prostaglandin E2 (PGE2; Tocris, cat. 2296). The 227483-062-R1-J1-PDC line was cultured in Panc media, containing all 6E components except hFGF-2, with the addition of 500 nM SB-431542 (Selleckchem, cat. S1067) and 10 nM gastrin (Tocris, cat. 3006). […]

[1] = second compound 0.0316 µM, first compound 0.0316 µM
[2] = second compound 0.0316 µM, first compound 0.1 µM
[3] = second compound 0.0316 µM, first compound 0.316 µM
[4] = second compound 0.0316 µM, first compound 1 µM
[5] = second compound 0.0316 µM, first compound 3.16 µM
[6] = second compound 0.0316 µM, first compound 10 µM
[7] = second compound 0.1 µM, first compound 0.0316 µM
[8] = second compound 0.1 µM, first compound 0.1 µM
[9] = second compound 0.1 µM, first compound 0.316 µM
[10] = second compound 0.1 µM, first compound 1 µM
[11] = second compound 0.1 µM, first compound 3.16 µM
[12] = second compound 0.1 µM, first compound 10 µM
[13] = second compound 0.316 µM, first compound 0.0316 µM
[14] = second compound 0.316 µM, first compound 0.1 µM
[15] = second compound 0.316 µM, first compound 0.316 µM
[16] = second compound 0.316 µM, first compound 1 µM
[17] = second compound 0.316 µM, first compound 3.16 µM
[18] = second compound 0.316 µM, first compound 10 µM
[19] = second compound 1 µM, first compound 0.0316 µM
[20] = second compound 1 µM, first compound 0.1 µM
[21] = second compound 1 µM, first compound 0.316 µM
[22] = second compound 1 µM, first compound 1 µM
[23] = second compound 1 µM, first compound 3.16 µM
[24] = second compound 1 µM, first compound 10 µM
[25] = second compound 3.16 µM, first compound 0.0316 µM
[26] = second compound 3.16 µM, first compound 0.1 µM
[27] = second compound 3.16 µM, first compound 0.316 µM
[28] = second compound 3.16 µM, first compound 1 µM
[29] = second compound 3.16 µM, first compound 3.16 µM
[30] = second compound 3.16 µM, first compound 10 µM
[31] = second compound 10 µM, first compound 0.0316 µM
[32] = second compound 10 µM, first compound 0.1 µM
[33] = second compound 10 µM, first compound 0.316 µM
[34] = second compound 10 µM, first compound 1 µM
[35] = second compound 10 µM, first compound 3.16 µM
[36] = second compound 10 µM, first compound 10 µM
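Also: spheroids exposed to the drugs for 7 days before readout.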
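For viability, T/C in this document: 100% = DMSO vehicle control wells.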

CCCS(=O)(=O)Nc1ccc(F)c(C(=O)c2c[nH]c3ncc(-c4ccc(Cl)cc4)cc23)c1F + CN1CCN(c2cc(C(=O)Nc3cc4cc(-c5cnn(C)c5)ccc4cn3)ccn2)CC1
IC50 (second compound 0.0316 µM): 8.72 µM | IC50 (second compound 0.1 µM): 8.61 µM | IC50 (second compound 0.316 µM): < 0.0316 µM | IC50 (second compound 1 µM): < 0.0316 µM | IC50 (second compound 3.16 µM): < 0.0316 µM | IC50 (second compound 10 µM): < 0.0316 µM | viability, T/C [1]: 100% | viability, T/C [2]: 101% | viability, T/C [3]: 104% | viability, T/C [4]: 112% | viability, T/C [5]: 103% | viability, T/C [6]: 42.9% | viability, T/C [7]: 79.8% | viability, T/C [8]: 92.3% | viability, T/C [9]: 95.8% | viability, T/C [10]: 95.3% | viability, T/C [11]: 82.8% | viability, T/C [12]: 44.8% | viability, T/C [13]: 7.31% | viability, T/C [14]: 7.89% | viability, T/C [15]: 8.26% | viability, T/C [16]: 12.3% | viability, T/C [17]: 13.7% | viability, T/C [18]: 12.7% | viability, T/C [19]: 0.4% | viability, T/C [20]: 1.65% | viability, T/C [21]: 0.49% | viability, T/C [22]: 0.54% | viability, T/C [23]: 0.67% | viability, T/C [24]: 1.12% | viability, T/C [25]: 0.36% | viability, T/C [26]: 0.59% | viability, T/C [27]: 1.11% | viability, T/C [28]: 0.45% | viability, T/C [29]: 1.82% | viability, T/C [30]: 1.33% | viability, T/C [31]: 0.23% | viability, T/C [32]: 0.7% | viability, T/C [33]: 0.31% | viability, T/C [34]: 1.08% | viability, T/C [35]: 1.52% | viability, T/C [36]: 0.99%

COC1C=CCC(C)C(C)S(=O)(=O)NC(=O)c2ccc3c(c2)N(CC2CCC21)CC1(CCCc2cc(Cl)ccc21)CO3 (centres undefined) + CN1CCN(c2cc(C(=O)Nc3cc4cc(-c5cnn(C)c5)ccc4cn3)ccn2)CC1
IC50 (second compound 0.0316 µM): 9.9 µM | IC50 (second compound 0.1 µM): 6.73 µM | IC50 (second compound 0.316 µM): < 0.0316 µM | IC50 (second compound 1 µM): < 0.0316 µM | IC50 (second compound 3.16 µM): < 0.0316 µM | IC50 (second compound 10 µM): < 0.0316 µM | viability, T/C [1]: 93.4% | viability, T/C [2]: 87.3% | viability, T/C [3]: 86.7% | viability, T/C [4]: 76.2% | viability, T/C [5]: 76.1% | viability, T/C [6]: 48.3% | viability, T/C [7]: 79.9% | viability, T/C [8]: 78.4% | viability, T/C [9]: 75.4% | viability, T/C [10]: 69.1% | viability, T/C [11]: 66.3% | viability, T/C [12]: 42% | viability, T/C [13]: 6.55% | viability, T/C [14]: 6.86% | viability, T/C [15]: 6.27% | viability, T/C [16]: 5.01% | viability, T/C [17]: 6.46% | viability, T/C [18]: 9.02% | viability, T/C [19]: 0.46% | viability, T/C [20]: 2.1% | viability, T/C [21]: 1.64% | viability, T/C [22]: 0.36% | viability, T/C [23]: 0.6% | viability, T/C [24]: 2.57% | viability, T/C [25]: 0.56% | viability, T/C [26]: 1.19% | viability, T/C [27]: 0.48% | viability, T/C [28]: 0.35% | viability, T/C [29]: 3.56% | viability, T/C [30]: 1.06% | viability, T/C [31]: 1.5% | viability, T/C [32]: 0.48% | viability, T/C [33]: 0.41% | viability, T/C [34]: 0.29% | viability, T/C [35]: 3.22% | viability, T/C [36]: 0.75%
